Reference: article PMC10807245 (Protein Science : A Publication of the Protein Society, 2024)
Where a SMILES comes first, the peptide text is derived from it. Where no end group is shown, it is not given here. The star is where a group is joined. FITC = O=C1OC2(c3ccc(O)cc3Oc3cc(O)ccc32)c2ccc(NC(=S)*)cc21; Ahx = NCCCCCC(=O)O

Columns and labels:
IMPα3ΔIBB = IMPα3ΔIBB (Homo sapiens, UniProt O00629); assay: biochemical; format: binding; settings: for Kd: SEM
Text: (§1) Recombinant IMPαΔIBB proteins were produced for structural analysis and assays to elucidate the binding profiles with PyV LTAs. For this, plasmid constructs encoding IMPα isoforms with an N‐terminal truncation removing the autoinhibitory IBB domain (ΔIBB) were synthesized (GenScript Biotech, Singapore). Codon optimized genes were designed with an N‐terminal 6xHis tag and TEV protease cleavage site and were cloned into the BamHI site of pET30a (GenScript Biotech, Singapore). […] For protein expression, the plasmids were transformed via heat shock into BL21(DE3)pLysS E. coli cells (Thermofisher Scientific, Monza, Italy) and grown in 1 L baffled flasks at room temperature using auto‐induction methods for 24–48 h (Studier, [2005]). […] Following this, the 6xHis tag was cleaved using TEV protease incubated overnight at 4°C, and then further purified via gel filtration using a Superdex 200 pg 26/600 column (Cytiva, Marlborough, USA) and tris‐buffered saline (50 mM tris, 125 mM sodium chloride, pH 8.0). […] Peak fractions were assessed for purity using SDS‐PAGE, then pooled and concentrated using 10 kDa cutoff centrifugal filters (Merck Millipore, Milan, Italy). All samples were aliquoted and stored at −80°C until further use.
(§2) Peptides corresponding to the cNLS regions of each PyV were synthesized for use in crystallography and binding assays. An automated CEM Liberty Blue solid phase peptide synthesizer generated each peptide with an added N‐terminal fluorescein isothiocyanate (FITC) tag. The reaction was performed using DIC and Oxyma coupling reagent and Fmoc deprotection with 20% (v/v) piperidine/DMF solution, all at 90°C. Following the final coupling, peptides were cleaved from the resin using a solution of TFA/TIPS/H2O (95/2.5/2.5) for 3 h. Purification was performed with HPLC and the peptides lyophilized to powder. Prior to use, peptide stock solutions were resolubilized to 10 mM concentration, aliquoted, and stored at −20°C until use.
FP was used to quantify binding affinities of the HPyV LTA cNLSs for IMPαΔIBB proteins. Two‐fold dilutions of recombinant IMPαΔIBB proteins were titrated into black Fluotrac microplates (Greiner Bio‐One, Kremsmünster, Austria) and FITC‐cNLS peptides were added to each well before making up to a total volume of 200 μL with tris‐buffered saline. The gain adjustment was made using a well with no FITC‐NLS peptide. The CLARIOstar Plus (BMG Labtech, Mornington, Australia) plate reader measured FP values, with each assay repeated in triplicate. Binding curves to calculate K d and B max values were generated with the one site specific binding least square fit function of Prism 9 (GraphPad) software.

IMPα1ΔIBB = IMPα1ΔIBB (Homo sapiens, UniProt P52292); assay: Fluorescence polarization (FP) assay, FITC-cNLS peptide binding to IMPα1ΔIBB; settings: FITC-Ahx-cNLS peptide, two-fold dilutions of recombinant IMPα1ΔIBB, tris-buffered saline, 200 μL, one site specific binding fit, mean ± SEM, three independent experiments, read-out: Kd (nM), a1
Text: as §1
as §2, with “Prior to use, peptide stock solutions were resolubilized to 10 mM concentration, aliquoted, and stored at −20°C until use.” left out
(§3) FP was used to quantify binding affinities of the HPyV LTA cNLSs for IMPαΔIBB proteins. […] The CLARIOstar Plus (BMG Labtech, Mornington, Australia) plate reader measured FP values, with each assay repeated in triplicate. […]

IMPα7ΔIBB = IMPα7ΔIBB (Homo sapiens, UniProt O60684); assay: FP assay, FITC-cNLS peptide binding to IMPα7ΔIBB; settings: FITC-Ahx-cNLS peptide, two-fold dilutions of recombinant IMPα7ΔIBB, tris-buffered saline, 200 μL, one site specific binding fit, mean ± SEM, three independent experiments, read-out: Kd (nM), a7
Chain of IMPα7ΔIBB (O60684 73-536, stated change not applied): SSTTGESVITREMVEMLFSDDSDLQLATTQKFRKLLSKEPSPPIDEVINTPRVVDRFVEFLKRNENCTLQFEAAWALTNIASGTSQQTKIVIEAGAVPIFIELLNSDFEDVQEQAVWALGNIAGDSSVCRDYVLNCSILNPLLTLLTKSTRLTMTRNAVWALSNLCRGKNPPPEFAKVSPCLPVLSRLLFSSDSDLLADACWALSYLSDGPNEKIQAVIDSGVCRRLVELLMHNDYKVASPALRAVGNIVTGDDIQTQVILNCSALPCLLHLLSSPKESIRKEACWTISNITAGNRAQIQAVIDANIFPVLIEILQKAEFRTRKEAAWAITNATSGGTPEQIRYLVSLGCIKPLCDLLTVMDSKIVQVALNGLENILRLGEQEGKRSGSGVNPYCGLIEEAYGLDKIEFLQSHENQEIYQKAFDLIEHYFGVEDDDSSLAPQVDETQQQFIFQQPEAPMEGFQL
Text: as §1
as §2, with “Prior to use, peptide stock solutions were resolubilized to 10 mM concentration, aliquoted, and stored at −20°C until use.” left out
as §3

IMPα2ΔIBB [1] = molecular target: T1, IMPα2ΔIBB (Mus musculus, UniProt P52293); assay: biochemical; format: binding; settings: for Kd: SEM; for binding to IMPα2ΔIBB: FITC-labeled MCPyV LTA NLS peptides, EMSAs and FP assays, in words
IMPα5ΔIBB = IMPα5ΔIBB (Homo sapiens, UniProt P52294); assay: FP assay, FITC-cNLS peptide binding to IMPα5ΔIBB; settings: FITC-Ahx-cNLS peptide, two-fold dilutions of recombinant IMPα5ΔIBB, tris-buffered saline, 200 μL, one site specific binding fit, mean ± SEM, three independent experiments, read-out: Kd (nM), a5
Chain of IMPα5ΔIBB (P52294 73-538, stated change not applied): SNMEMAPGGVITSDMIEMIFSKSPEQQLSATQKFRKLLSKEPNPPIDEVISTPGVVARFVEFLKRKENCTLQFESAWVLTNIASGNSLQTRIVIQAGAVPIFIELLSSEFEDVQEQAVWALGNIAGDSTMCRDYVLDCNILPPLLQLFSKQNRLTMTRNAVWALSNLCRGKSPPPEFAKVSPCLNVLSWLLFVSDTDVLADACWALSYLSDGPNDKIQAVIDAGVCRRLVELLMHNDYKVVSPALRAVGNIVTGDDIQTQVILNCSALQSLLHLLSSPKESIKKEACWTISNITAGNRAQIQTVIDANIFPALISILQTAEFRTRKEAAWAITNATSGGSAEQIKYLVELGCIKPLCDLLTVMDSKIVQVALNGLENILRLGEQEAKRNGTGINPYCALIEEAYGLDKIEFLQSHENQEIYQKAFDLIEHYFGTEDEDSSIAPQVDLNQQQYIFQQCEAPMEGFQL
Text: as §1
as §2, with “Prior to use, peptide stock solutions were resolubilized to 10 mM concentration, aliquoted, and stored at −20°C until use.” left out
as §3

IMPαΔIBB isoforms [2] = assay: Electrophoresis mobility shift assays (EMSAs) of FITC-cNLS peptides with IMPαΔIBB isoforms; format: binding; settings: EMSA, 1.5% agarose gel, TB buffer pH 8.5, FITC-cNLS peptide, in words
IMPα2ΔIBB [3] = molecular target: T1, IMPα2ΔIBB; assay: X-ray crystallography of cNLS peptides complexed with IMPα2ΔIBB; format: binding; settings: FITC-cNLS peptide soaked or co-crystallized, in words
Text: Recombinant IMPαΔIBB proteins were produced for structural analysis and assays to elucidate the binding profiles with PyV LTAs. For this, plasmid constructs encoding IMPα isoforms with an N‐terminal truncation removing the autoinhibitory IBB domain (ΔIBB) were synthesized (GenScript Biotech, Singapore). Codon optimized genes were designed with an N‐terminal 6xHis tag and TEV protease cleavage site and were cloned into the BamHI site of pET30a (GenScript Biotech, Singapore). […] For protein expression, the plasmids were transformed via heat shock into BL21(DE3)pLysS E. coli cells (Thermofisher Scientific, Monza, Italy) and grown in 1 L baffled flasks at room temperature using auto‐induction methods for 24–48 h (Studier, [2005]). […] Peak fractions were assessed for purity using SDS‐PAGE, then pooled and concentrated using 10 kDa cutoff centrifugal filters (Merck Millipore, Milan, Italy). […]
X‐ray crystallography was employed to characterize HPyV LTA cNLSs bound to IMPα2ΔIBB. […] Protein interface interactions used in the structure figures were calculated using PDBePISA (Krissinel & Henrick, [2007]), with hydrogens removed in the PDB input models.

IMPαΔIBB isoforms [4] = assay: FP assays, summary over all IMPαΔIBB isoforms; format: binding
Text: as §1, with “All samples were aliquoted and stored at −80°C until further use.” left out
as §3

Chain of IMPα3ΔIBB (O00629 64-521, stated change not applied): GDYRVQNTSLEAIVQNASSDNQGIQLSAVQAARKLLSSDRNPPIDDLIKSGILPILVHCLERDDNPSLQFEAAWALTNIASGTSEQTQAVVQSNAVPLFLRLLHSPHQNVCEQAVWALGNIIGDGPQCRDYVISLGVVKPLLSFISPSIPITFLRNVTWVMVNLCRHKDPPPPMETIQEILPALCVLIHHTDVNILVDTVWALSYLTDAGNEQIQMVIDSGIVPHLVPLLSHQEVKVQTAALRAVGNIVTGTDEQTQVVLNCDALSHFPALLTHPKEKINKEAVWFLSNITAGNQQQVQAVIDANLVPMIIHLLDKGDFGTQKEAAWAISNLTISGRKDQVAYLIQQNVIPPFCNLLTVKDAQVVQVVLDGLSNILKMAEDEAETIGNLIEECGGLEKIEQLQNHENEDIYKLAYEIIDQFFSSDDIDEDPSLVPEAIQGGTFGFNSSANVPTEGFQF

CSCC[C@H](NC(=O)CCCCCNC(=S)Nc1ccc2c(c1)C(=O)OC21c2ccc(O)cc2Oc2cc(O)ccc21)C(=O)N[C@@H](Cc1ccccc1)C(=O)N[C@@H](C)C(=O)N[C@@H](CO)C(=O)N[C@@H](CC(=O)O)C(=O)N[C@@H](CC(=O)O)C(=O)N[C@@H](CCC(=O)O)C(=O)N[C@@H](CC(N)=O)C(=O)N[C@H](C(=O)NCC(=O)N[C@@H](CO)C(=O)N[C@@H](CCC(N)=O)C(=O)N[C@@H](Cc1c[nH]cn1)C(=O)N[C@@H](CO)C(=O)N[C@H](C(=O)N1CCC[C@H]1C(=O)N1CCC[C@H]1C(=O)N[C@@H](CCCCN)C(=O)N[C@@H](CCCCN)C(=O)N[C@@H](CCCCN)C(=O)N[C@@H](CCCCN)C(=O)N[C@@H](CCCCN)C(=O)N[C@H](C(=O)O)C(C)C)[C@@H](C)O)[C@@H](C)O [JCPyV] ({FITC-Ahx}-MFASDDENTGSQHSTPPKKKKKV-OH; C-terminus assumed)
Kd (IMPα3ΔIBB): 119 ± 2.8 nM | Kd (IMPα1ΔIBB): 76.9 ± 2 nM | Kd (IMPα7ΔIBB): 103 ± 1.1 nM | Kd (IMPα2ΔIBB [1]): 89.6 ± 3 nM | Kd (IMPα5ΔIBB): 271 ± 4.1 nM

C[C@H](NC(=O)[C@H](Cc1c[nH]cn1)NC(=O)[C@H](CCCCN)NC(=O)[C@H](CCCCN)NC(=O)[C@H](CCCCN)NC(=O)[C@@H]1CCCN1C(=O)[C@@H]1CCCN1C(=O)[C@@H](NC(=O)[C@H](C)NC(=O)[C@H](CCC(N)=O)NC(=O)[C@H](CO)NC(=O)[C@H](CS)NC(=O)[C@H](CO)NC(=O)[C@@H]1CCCN1C(=O)[C@H](CCC(=O)O)NC(=O)[C@H](CCC(=O)O)NC(=O)[C@H](CCC(=O)O)NC(=O)[C@@H]1CCCN1C(=O)[C@H](C)NC(=O)[C@H](CO)NC(=O)[C@H](CCCNC(=N)N)NC(=O)[C@H](CCCCN)NC(=O)CCCCCNC(=S)Nc1ccc2c(c1)C(=O)OC21c2ccc(O)cc2Oc2cc(O)ccc21)[C@@H](C)O)C(=O)O [KIPyV] ({FITC-Ahx}-KRSAPEEEPSCSQATPPKKKHA-OH; C-terminus assumed)
Kd (IMPα3ΔIBB): 11 ± 2 nM | Kd (IMPα1ΔIBB): 22 ± 1 nM | Kd (IMPα7ΔIBB): 8 ± 1 nM | Kd (IMPα2ΔIBB [1]): 14 ± 3 nM | Kd (IMPα5ΔIBB): 10 ± 1 nM

C[C@H](NC(=O)[C@H](CCC(N)=O)NC(=O)[C@H](CO)NC(=O)[C@H](CS)NC(=O)[C@H](CCC(N)=O)NC(=O)[C@@H]1CCCN1C(=O)[C@H](CCC(=O)O)NC(=O)[C@H](CCC(=O)O)NC(=O)[C@H](CC(=O)O)NC(=O)[C@H](CC(=O)O)NC(=O)[C@H](CCC(=O)O)NC(=O)[C@H](CCCNC(=N)N)NC(=O)[C@@H](NC(=O)[C@H](CCCNC(=N)N)NC(=O)[C@H](CCCCN)NC(=O)CCCCCNC(=S)Nc1ccc2c(c1)C(=O)OC21c2ccc(O)cc2Oc2cc(O)ccc21)[C@@H](C)O)C(=O)N[C@H](C(=O)N1CCC[C@H]1C(=O)N1CCC[C@H]1C(=O)N[C@@H](CCCCN)C(=O)N[C@@H](CCCCN)C(=O)N[C@@H](CCCCN)C(=O)N[C@@H](CCCCN)C(=O)N[C@@H](CC(=O)O)C(=O)O)[C@@H](C)O [WUPyV] ({FITC-Ahx}-KRTREDDEEPQCSQATPPKKKKD-OH; C-terminus assumed)
Kd (IMPα3ΔIBB): 0.3 ± 0.03 nM | Kd (IMPα1ΔIBB): 0.2 ± 0.02 nM | Kd (IMPα7ΔIBB): 0.1 ± 0.1 nM | Kd (IMPα2ΔIBB [1]): 36.1 ± 2.2 nM | Kd (IMPα5ΔIBB): 0.9 ± 0.04 nM

{FITC-Ahx}-MFASDDENTGSQHSTPPKKKKKV [JCPyV LTA NLS peptide, FITC-Ahx-labelled synthetic peptide of JCPyV LTA monopartite cNLS, residues 111-133]
co-migration with IMPαΔIBB isoforms (IMPαΔIBB isoforms [2]): co‐migrated with all IMPαΔIBB isoforms | binding mode in crystal structure with IMPα2ΔIBB (IMPα2ΔIBB [3]): bound as a monopartite cNLS at the major site of IMPα2ΔIBB

{FITC-Ahx}-PFSRKRTFGGS [MCPyV NLSm K280T]
binding to IMPα2ΔIBB (IMPα2ΔIBB [1]): completely abrogated IMPα2ΔIBB binding

{FITC-Ahx}-PFSRKRTFGGSRSSASSASSASFTSTPPKPKKNRE [MCPyV NLSbip K280T]
binding to IMPα2ΔIBB (IMPα2ΔIBB [1]): completely abrogated IMPα2ΔIBB binding to MCPyV LTA NLSm but not NLSbip

{FITC-Ahx}-SSSDEEEPASSASVNPEEGCSQDSKYSATPPKQKKPN [HPyV7 LTA cNLS peptide]
co-migration with IMPαΔIBB isoforms (IMPαΔIBB isoforms [2]): a very small fraction of HPyV7 LTA monopartite cNLS co‐migrated with IMPαΔIBB isoforms | binding to IMPα3ΔIBB (IMPα3ΔIBB; in vitro, FP, in words): weakly binding IMPα3ΔIBB | IMPα isoform specificity (IMPαΔIBB isoforms [4]; in words): selectively bound to IMPα3ΔIBB | Kds for IMPαΔIBB isoforms (IMPαΔIBB isoforms [4]; span over IMPα1, 2, 3, 5, 7 ΔIBB): too weak to allow estimation of a Kd
